Experimental data as given in patent publication US10583092B2, “Therapeutic nanoparticles comprising a protonatable nitrogen therapeutic agent and methods of making and using same” (Pfizer Inc., priority 2014, dated 2020).

Assay: Solubility of dasatinib in solvents, quantified using HPLC
Type: physicochemical
Conditions: benzyl alcohol doped with oleic acid versus benzyl alcohol
Text: The solubility of dasatinib in benzyl alcohol, ethyl acetate, and mixtures of oleic acid and benzyl alcohol were quantified using HPLC.

- improvement of solubility: 2-3 fold
SMILES: Cc1nc(Nc2ncc(C(=O)Nc3c(C)cccc3Cl)s2)cc(N2CCN(CCO)CC2)n1 [dasatinib]
